Laboratory results published in patent US20230086469A1, “AUTOANTIGENIC PEPTIDES (CALVICIFIV), PRESENTED BY TOLEROGENIC DENTRITIC CELLS, USEFUL FOR THE PERSONALIZED TREATMENT OF RHEUMATOID ARTHRITIS” (UNIVERSIDAD DE CHILE, priority 2019, published 2023).

Key:
Type in all cases: cell-based, human
[1] = system: autologous CD4+ T cells from patients with RA; experiment: Co-culture of peptide-pulsed Bay-DCs with autologous CFSE-stained CD4+ T cells; settings: Bay-DCs pulsed with peptide in comparison to mDCs, 5 days co-culture; for decrease of IL-17 expression by CD4+ T lymphocytes: FIG. 4B; for expression of IFN-γ by CD4+ T lymphocytes: FIG. 4A
Text: (§1) FIGS. 4A-4C. Modulation of antigen-specific CD4+ T cell responses by tDCs generated using different protocols and pulsed with autoantigenic peptides. Two different protocols were used for tDCs generation from peripheral blood monocytes of RA patients: 1) DCs treated with Bay 11-082 (Bay-DCs); and 2) DCs treated with vitamin D3, dexamethasone and LPS (VD3-DCs); mDCs were used as control. DCs were pulsed with previously selected peptides or mixtures of them, using a peptide derived from Aggrecan, as a positive control. Then, DCs were co-cultured with autologous CFSE-stained CD4+ T cells and, after 5 days, 8 the percentage of proliferating CD4+ T cells (CFSElo) expressing IFN-γ (FIG. 4A), IL-17 (FIG. 4B) or TNF-α (FIG. 4C), was evaluated by flow cytometry. The percentage of decrease in the expression of proinflammatory cytokines by CD4+ T cells co-cultured with tDCs in comparison to mDCs was calculated.
In order to evaluate the potential of autoantigenic peptides to load tolerogenic DCs generated from different protocols to modulate antigen-specific CD4+ T cell responses, co-culture assays of tDCs pulsed with autoantigenic peptides and autologous CD4+ T cells from patients with RA were performed. DCs were generated from monocytes according to the protocol described of example 2. To differentiate other tolerogenic dendritic cells types, DCs generated from monocytes were modulated with Bay-11-7982 an irreversible inhibitor of NF-κB (Bay-DCs), or modulated with Vitamin D3, dexamethasone and LPS (VD3-DCs). As control, mature DCs (mDCs) treated only with MPLA were used.
After this, the cells were pulsed with the autoantigenic peptides in the same way as an example 2, independently with the following autoantigenic peptides; 3 peptides derived from vimentin, such as Vimentin-1, Vimentin-1 citrullinated, Vimentin-2 citrullinated, or autoantigenic peptides derived from Fibrinogen, Calreticulin and Fibronectin, Aggrecan, as a positive control was used of the activation of the autologous CD4+ T cells, and un-pulsed DCs were used as a basal activation control. Besides mixtures were considered: Mix 1: Vimentin-1 and Vimentin-1 citrullinated; Mix 2: Vimentin-2 citrullinated and Calreticulin; Mix 3: Mix 1+Mix 2.
(§2) tDCs were then co-cultured with CFSE-stained CD4+ T cells and, after 5 days of culture, the percentage of proliferating CD4+T lymphocytes, expressing IFN-γ, IL-17 and TNF-α, was evaluated by flow cytometry. In each case, the percentage of decrease in the expression of proinflammatory cytokines by CD4+ T cells co-cultured with tDCs in comparison to mDCs was calculated.

[2] = system: autologous CD4+ T cells from patients with RA; experiment: Co-culture of peptide-pulsed VD3-DCs with autologous CFSE-stained CD4+ T cells; settings: VD3-DCs pulsed with peptide in comparison to mDCs; 5 days co-culture; FIG. 4B
Text: as §1, with “calculated. […]” for “calculated.”
as §2

[3] = system: autologous CD4+ T cells from patients with RA; experiment: Co-culture of peptide-pulsed MPLA-tDCs with autologous CFSE-stained CD4+ T cells; settings: MPLA-tDCs pulsed with peptide in comparison to mDCs, 5 days co-culture; for expression of IFN-γ by proliferating CD4+ T lymphocytes: FIG. 3A
Text: FIGS. 3A-3C Modulation of antigen-specific CD4+ T cell responses by tolerogenic dendritic cells (tDCs) treated with dexamethasone and monophosphoryl lipid A (MPLA-tDCs) and pulsed with autoantigenic peptides. MPLA-tDCs and MPLA-matured DCs (mDCs), as activation control, were generated from peripheral blood monocytes of RA patients, and pulsed with previously selected peptides or mixtures of them, using a peptide derived from Aggrecan, previously described in literature, as a control peptide. Subsequently, DCs were co-cultured with autologous CFSE-stained CD4+ T cells and, after 5 days, the percentage of proliferating CD4+ T cells (CFSElo) expressing IFN-γ (FIG. 3A), L-17 (FIG. 3B) or TNF-α (FIG. 3C) was evaluated by flow cytometry. […] To compare the expression of cytokines induced by each type of DCs, a T test was performed (*p<0.05).
In order to evaluate the ability of tDCs to modulate antigen-specific CD4+ T cell responses, co-culture assays of tDCs pulsed with autoantigenic peptides and autologous CD4+ T cells from patients with RA were performed. DCs were generated from monocytes isolated from peripheral blood of patients with RA, cultured at a concentration of 2-3×10^6 cells/ml in serum-free AIM-V medium in the presence of 500 U/mL of recombinant human interleukin-4 (rhIL-4) and recombinant human […] colony stimulating factor (rhGM-CSF), for 5 days, at 37° C. and 5% CO2. […]
The effect of autoantigenic peptides to modulate effector CD4+ T cell responses of patients with RA, when are presented by tDCs generated using the protocol described in this application. […] DCs were then co-cultured with CFSE-stained CD4+ T cells and, after 5 days of culture, the percentage of proliferating CD4+T lymphocytes, expressing IFN-γ, IL-17 and TNF-α, was evaluated by flow cytometry. In each case, the percentage of decrease in the expression of proinflammatory cytokines by CD4+ T cells co-cultured with tDCs in comparison to mDCs was calculated.

Question: With Fibrinogen as the substance, how does the “decrease of IL-17 expression by CD4+ T lymphocytes” value (“decrease of IL-17 expression” below) [1] read?
Answer: Its value is “high percentage of decrease”.

Question: And the “decrease of IL-17 expression” value [2]?
Answer: The value was “high percentage of decrease”.

Question: How did the “expression of IFN-γ by proliferating CD4+ T lymphocytes” value [3] turn out when Calreticulin was run?
Answer: Its value is “significantly reduced”.

Question: And the “expression of IFN-γ by CD4+ T lymphocytes” value [1]?
Answer: Its value is “significantly reduced”.

Question: What about the “decrease of IL-17 expression” value [1] of the same substance?
Answer: Its value is “high percentage of decrease”.

Question: What about the “decrease of IL-17 expression” value [2] of the same substance?
Answer: Its value is “high percentage of decrease”.

Question: Which results are given for Fibronectin?
Answer: expression of IFN-γ by proliferating CD4+ T lymphocytes [3]: significantly reduced; expression of TNF-α by proliferating CD4+ T lymphocytes ([3]; FIG. 3C): significantly decrease; expression of IFN-γ by CD4+ T lymphocytes [1]: significantly reduced
